Structures can show the parent of a compound that is named as a salt.
System: SARS-CoV-2
Assay: microbe, parasite or virus in culture
Conditions: Severe acute respiratory syndrome coronavirus 2, Vero C1008, 48 h

SMILES	IC50 [µM]	IC50 (read-out: pIC50 (converted)) [µM]
CCC1NC(=O)c2cc(S(N)(=O)=O)c(Cl)cc2N1 (stereo not drawn) [QUINETHAZONE]	> 20	> 20
CC=CC(=O)N(CC)c1ccccc1C	> 20	> 20
C=C(C)[C@@H]1CCC(C)=C[C@H]1c1c(O)cc(CCCCC)cc1O [CANNABIDIOL]	> 20	> 20
CCN1CCC[C@H]1CNC(=O)c1c(O)c(Cl)cc(Cl)c1OC [RACLOPRIDE]	> 20	> 20
CC1C2Cc3ccc(O)cc3C1(C)CCN2C (stereo not drawn)	> 20	> 20
CCOP(=O)(O)OCC [DIETHYL HYDROGEN PHOSPHATE]	> 20	> 20
N[C@@H](Cc1cc(Br)c(O)c(Br)c1)C(=O)O [DIBROMOTYROSINE]	> 20	> 20
COc1c(C(O)CCc2ccc(O)cc2)c(OCCN2CCCCC2)c(OC)c2occc12 (stereo not drawn) [PIPROFUROL]	> 20	> 20
COC(=O)[C@H]1[C@@H](OC(=O)c2ccccc2)C[C@@H]2CC[C@H]1N2C [COCAINE]	> 20	> 20
CN1[C@@H]2C[C@@H](OC(=O)[C@H](CO)c3ccccc3)C[C@H]1[C@@H]1O[C@@H]12 [SCOPOLAMINE]	> 20	> 20
Cc1ccc(/C(=C\CN2CCCC2)c2cccc(/C=C/C(=O)O)n2)cc1 [ACRIVASTINE]	> 20	> 20
CCCOC(=O)c1ccc(N)cc1 [RISOCAINE]	> 20	> 20
COc1ccc(CN(C(=O)[C@@H](N)Cc2c(C)cc(C(N)=O)cc2C)[C@H](C)c2nc(-c3ccccc3)c[nH]2)cc1C(=O)O	> 20	> 20
Nc1cc2[nH]cnc2c(=O)[nH]1 [DEZAGUANINE]	> 20	> 20
CCOC(=O)N1CCC(=C2c3ccc(Cl)cc3CCc3cccnc32)CC1 [LORATADINE]	> 20	> 20
CCCCCCCN(CC)CCCC(O)c1ccc(NS(C)(=O)=O)cc1 (stereo not drawn) [IBUTILIDE]	> 20	> 20
Cc1cc(/N=C(\Nc2nccs2)NC2CCCCC2)c2ccccc2n1 [TIMEGADINE]	> 20	> 20
CCCc1cc(C(N)=S)ccn1 [PROTIONAMIDE]	> 20	> 20
COc1ccc2c3c1O[C@H]1[C@@H](O)CCC4[C@@H](C2)N(C)CC[C@@]341 (stereo partly drawn)	> 20	> 20
NCCc1c[nH]cn1 [HISTAMINE]	> 20	> 20
CC1=CC(=O)c2ccccc2C1=O [MENADIONE]	> 20	> 20
CNC=O	> 20	> 20

SMILES	IC50 [µM]	IC50 (read-out: pIC50 (converted)) [µM]
COC(=O)C(N)Cc1ccc(O)c(O)c1 (stereo not drawn)	> 20	> 20
CNC(=O)c1cccc2cc(Oc3ccnc4cc(OCC5(N)CC5)c(OC)cc34)ccc12 [LUCITANIB]	> 20	> 20
COc1ccc(C(C)=O)c(O)c1 [PAEONOL]	> 20	> 20
CC(C)(C)Cn1c(N)nc2ccc(-c3[nH]c(C(C)(C)C)nc3-c3ccc(F)cc3)nc21 [RALIMETINIB]	> 20	> 20
Nc1[nH]cnc2ncnc1-2 [ADENINE]	> 20	> 20
CC(C)C[C@H](NC(=O)OCC1c2ccccc2-c2ccccc21)C(=O)O	> 20	> 20
C=CCC1(C(C)CCC)C(=O)NC(=S)NC1=O (stereo not drawn) [THIAMYLAL]	> 20	> 20
CC(C(=O)O)c1cccc(Oc2ccccc2)c1 (stereo not drawn) [FENOPROFEN]	> 20	> 20
CNC(=O)COc1ccccc1OCC(O)CNC(C)(C)C (stereo not drawn) [CETAMOLOL]	> 20	> 20
Nc1ccc(S(=O)(=O)Nc2ccnn2-c2ccccc2)cc1 [SULFAPHENAZOLE]	> 20	> 20
NS(=O)(=O)c1cc(C(=O)O)cc(N2CCCC2)c1Oc1ccccc1 [PIRETANIDE]	> 20	> 20
C[C@H]1[C@H](OC(=O)CCC(=O)O)O[C@@H]2O[C@@]3(C)CC[C@H]4[C@H](C)CC[C@@H]1[C@@]24OO3 [ARTESUNATE]	> 20	> 20
O=C(O)[C@@H]1CSCN1 [THIOPROLINE]	> 20	> 20
CCOC(=O)C1(c2ccccc2)CCN(CCN2CCOCC2)CC1 [MORPHERIDINE]	> 20	> 20
O=[N+]([O-])c1c(Cl)cccc1-c1c[nH]cc1Cl [PYRROLNITRIN]	> 20	> 20
CN(C(=O)CNC(=O)CN)c1ccc(Cl)cc1C(=O)c1ccccc1Cl [LORZAFONE ANHYDROUS]	> 20	> 20
C1CCC(C(CC2CCCCN2)C2CCCCC2)CC1 (stereo not drawn) [PERHEXILINE MALEATE]	> 20	> 20
O=C(O)[C@]1(O)C[C@H](O)[C@@H](O)[C@@H](O)C1	> 20	> 20
Cn1cnc2c(F)c(Nc3ccc(Br)cc3F)c(C(=O)NOCCO)cc21 [BINIMETINIB]	> 20	> 20
O=C1CCCO1 [BUTYROLACTONE]	> 20	> 20
O=C1N(c2ccccc2)c2ccccc2C1(Cc1ccncc1)Cc1ccncc1 [LINOPIRDINE]	> 20	> 20
CCc1cccc2c3c([nH]c12)C(CC)(CC(=O)O)OCC3 (stereo not drawn) [ETODOLAC]	> 20	> 20

SMILES	IC50 [µM]	IC50 (read-out: pIC50 (converted)) [µM]
CC(=O)[C@H]1CC[C@H]2[C@@H]3CC=C4C[C@@H](O)CC[C@]4(C)[C@H]3CC[C@]12C [PREGNENOLONE]	> 20	> 20
O=C(CCNNC(=O)c1ccncc1)NCc1ccccc1 [NIALAMIDE]	> 20	> 20
COc1cc(C)[nH]c(=O)c1CNC(=O)c1c(C)n([C@H](C)C2CCN(CC(F)(F)F)CC2)c2ccccc12 [CPI-1205]	> 20	> 20
CC1(C)NC(=O)N(c2ccc([N+](=O)[O-])c(C(F)(F)F)c2)C1=O [NILUTAMIDE]	> 20	> 20
COCC(=O)Nc1cc(COc2ccc(NC(=O)Nc3cc(C(C)(C)C)nn3-c3ccc(C)cc3)c3ccccc23)ccn1 [JNJ-49095397]	> 20	> 20
Nc1c(CC(=O)O)cccc1C(=O)c1ccc(Br)cc1 [BROMFENAC]	> 20	> 20
Oc1c(Cl)cc(Cl)c(Cl)c1Cc1c(O)c(Cl)cc(Cl)c1Cl [HEXACHLOROPHENE]	> 20	> 20
CCOC(=O)c1ncn2c1CN(C)C(=O)c1cc(F)ccc1-2 [FLUMAZENIL]	> 20	> 20
Cc1cc(NC(=O)C2=C(O)c3ccccc3S(=O)(=O)N2C)no1 [ISOXICAM]	> 20	> 20
CC1CNc2c(cccc2S(=O)(=O)N[C@@H](CCCNC(=N)N)C(=O)N2CC[C@@H](C)C[C@@H]2C(=O)O)C1 (stereo partly drawn) [ARGATROBAN]	> 20	> 20
O=C1Nc2ccc(Cl)cc2C(c2ccccc2Cl)=NC1O (stereo not drawn) [LORAZEPAM]	> 20	> 20
CC(C)(C(=O)NCC(F)(F)C(F)(F)F)C(=O)N[C@@H]1C(=O)Nc2ccccc2-c2ccccc21 [RG-4733]	> 20	> 20
C[C@]12CC[C@H]3[C@@H](CCC4=CC(=O)CC[C@@H]43)[C@@H]1CC[C@@H]2O [NANDROLONE]	> 20	> 20
CCN(CC)CCCCC(NC(=O)c1ccc([N+](=O)[O-])cc1)c1ccccc1 (stereo not drawn)	> 20	> 20
CN(C)S(=O)(=O)c1cc2c(c(Cl)c1Cl)OC(C(=O)O)C2 (stereo not drawn)	> 20	> 20
CN1CCN(CCCN2c3ccccc3Sc3ccc(Cl)cc32)CC1 [PROCHLORPERAZINE]	> 20	> 20
CC(C)N1CCN(c2ccc(N3CCN(c4ccc(OC[C@H]5OC[C@](Cn6cncn6)(c6ccc(F)cc6F)O5)cc4)CC3)cc2)C1=O (racemic) [PRAMICONAZOLE]	> 20	> 20
COP(=O)(OC)OC=C(Cl)Cl [DICHLORVOS]	> 20	> 20
CO[C@@]12CC[C@@]3(C[C@@H]1[C@](C)(O)C(C)(C)C)[C@H]1Cc4ccc(O)c5c4[C@@]3(CCN1CC1CC1)[C@H]2O5 [BUPRENORPHINE]	> 20	> 20
O=C(/N=C(/Nc1cc(F)cc(Cl)c1)Nc1cc(C(F)(F)F)[nH]n1)c1cccc(Cl)c1	> 20	> 20

Reference: ChEMBL document CHEMBL4651402, “Screening of ~5500 FDA-approved drugs and clinical candidates for anti-SARS-CoV-2 activity” (2021)
